Data: US20230413825A1, “SHORT AND LONG TERM DIS[…] ALCOHOL AND ZINC PYRITHIONE” (CAO Group, Inc., priority 2020, published 2023)
Where two headings read alike, the source gives them in different places.

Text: The present invention also utilizes the salts of pyrithione, especially the zinc salt.

Which results are given for Zinc pyrithione?
solubility (in solution in an admixture of alcohols and water): about 60 ppm; solubility (in water): about 8 ppm
